These results are taken from patent US10045531B2, “Use of one or more fatty acid esters as insecticide and/or arachnicide” (Oleon NV, priority 2014, dated 2018).

One data set concerns Rhopalosiphum padi. Put plainly: Efficacy on aphids on infested wheat seedlings, spray treatment. The format is in vivo. The settings on record: sprayed on wheat seedlings. Here is the method:
The trial was carried out on wheat infected with aphids.
Rhopalosiphum padi aphids are reared on wheat in the laboratory. The rearing conditions are as follows: 14 hrs in the light at 18° C., and 10 hrs in darkness at 15° C. at a relative humidity (RH) of 60-70%.
“Triticum aestivum” wheat of the Apache variety is grown under the following conditions: 14 hrs in the light at 18° C., and 10 hrs in darkness at 15° C. at a relative humidity (RH) of 60-70%. For the experiments, seedlings having reached stage 12 on the BBCH-scale, i.e. 2 leaves, are chosen.
On D-1, 3 adult aphids are placed on each wheat seedling (approximately 30 seedlings per dose tested). The seedlings are kept for 14 hrs in the light at 18° C., and 10 hrs in darkness at 15° C. at a relative humidity (RH) of 60-70%.
On day D, the seedlings are treated with a composition as described in Example 1.a.). Emulsions containing the following doses of isoamyl laurate were tested: 1.35 L/ha (N/4), 2.7 L/ha (N/2), […] (N), 10.8 L/ha (2N) and 16.2 L/ha (3N). Two controls are carried out: a first control using water and a second control using the adjuvant, tested alone, at a dose of 1.8 L/ha, which corresponds to the dose of adjuvant contained in dose 3N of isoamyl laurate. The volume of composition sprayed corresponds to the equivalent of 200 L/ha.
For the treatment, nozzles are used to spray the different emulsions and to produce a good distribution of the drops over the plants (TeeJet 100015-VS flat spray nozzle used on a Euro-Pulvé laboratory sprayer).
On D+1, D+3, D+7, the adults and larvae present on each seedling are counted.
Statistical analysis is carried out using XLSTATS and a variance analysis is carried out using a Newman-Keuls and a Dunnett's test. The Dunnett's tests used post hoc following an ANOVA give a probability of 0.00.
The seedlings are treated on day D with a composition as described in Example 1.b). An emulsion containing the following dose of 2-ethylhexyl caprate was tested: 16.2 L/ha (3N). […]

A further data set concerns Ostrinia nubilalis. In words: Efficacy on the European corn borer on corn leaves, spray treatment. It is filed as in vivo. The settings on record: dose 6.0 L/ha, composition 1.a, counted on D+3. Here is the method:
The test was carried out on corn infected by the European corn borer. Egg clusters from Ostrinia nubilalis are kept under controlled laboratory conditions in order to allow the eggs to develop. The eggs are kept for 14 hrs in the light and at 18° C., and for 10 hrs in the dark at 15° C. at a relative humidity varying from 60 to 70%. After emerging, the larvae at the 1st and 2nd instar stages are used in the experiment. “Zea Mays” corn of the variety DK315 is grown under the following conditions: 14 hrs in the light at 18° C., and 10 hrs in darkness at 15° C. at a relative humidity (RH) of 60-70%. On D-1, 3 corn leaves are taken from the seedlings and placed in ventilated plastic boxes. 10 larvae are then placed onto the corn leaves in each box, the trial being repeated three times. The larvae are kept for 14 hrs in the light at 18° C., and 10 hrs in darkness at 15° C. at a relative humidity (RH) of 60-70%. The leaves are treated on day D with a composition as described in Example 1.a) with a dose of isoamyl laurate equivalent to 6.0 L/ha. For the treatment, nozzles are used to spray the composition in example 1.a) and to produce a good distribution of the drops onto the plants (TeeJet 110015-VS flat spray nozzle used on a Euro-Pulvé laboratory sprayer). […] On D+3, the larvae and adults present in each box are counted. […]

Data set [1] concerns Leptinotarsa decemlineata. Put plainly: Efficacy on Colorado potato beetle larvae, leaf soaking, IRAC method no.7. The settings on record: dose 6.0 L/ha, composition 1.a, L4 larvae, mortality after 5 hrs. It is filed as in vivo. Here is the method: The efficacy of isoamyl laurate on Colorado potato beetles has been evaluated according to a protocol based on IRAC (Insecticide Resistance Action Committee) method no.7, version 3, June 2009. Eggs from the Colorado potato beetle are collected from fields and placed on the lower (abaxial) surface of potato leaves. After 4 to 15 days, the hatching of the eggs takes place, producing dark red-brown larvae. Potato leaves are treated by soaking for 5 seconds in a composition as described in Example 1.a) at a dose of isoamyl laurate equivalent to 6.0 L/ha. The potato leaves are infested on the abaxial face thereof with 5 Colorado potato beetle larvae at stage L4. Each trial is repeated a second time. Mortality is evaluated after 5 hrs. At a dose of 6.0 L/ha of isoamyl laurate, 10% efficacy is obtained on the Colorado potato beetle larvae.

The test system of data set [2] is Pollen beetles Meligethes aeneus, susceptible. In words: Efficacy on pollen beetles, coated glass phial, IRAC method no.11, susceptible strains. It is filed as in vivo. The settings on record: after 24 hrs. As to the method:
(§1) The efficacy of isoamyl laurate against pollen beetles has been evaluated according to a protocol based on IRAC (Insecticide Resistance Action Committee) method no.11, version 3, June 2009.
(§2) Pollen beetles are collected from different locations in infested fields. They are then kept in ventilated plastic boxes, in the bottom of which a dry paper has been placed. A number of oilseed rape leaves as well as 2 to 3 oilseed rape in flower are added as a food source. As it is important that the pollen beetles are not subjected to excessive temperatures, to humid conditions or other sources of stress following collection, they are kept under the following conditions: 14 hrs in the light at 18° C., and 10 hrs in darkness at 15° C. at a relative humidity (RH) of 60-70%.
(§3) The isoamyl laurate product was solubilized in acetone. Each solution was then placed in a homogeneous manner on the inside of a glass phial 2 cm in diameter and 4 cm in height, until the acetone has completely evaporated. The quantity of insecticide provided by 0.5 mL of acetone solution is calculated in such a way that a unit of area of the phial is covered with the same quantity of insecticide as that carried by the same unit of area of a leaf belonging to a field having undergone a treatment at 200 L/ha.
(§4) 10 pollen beetles are introduced into each phial, each trial being carried out twice.
(§5) Mortality is evaluated after 24 hrs.

The nature of data set [3]: Trials comparing a concentrate containing isoamyl laurate with a commercial insecticide containing Lambda-cyhalothrin. To be noted: concentrate containing isoamyl laurate vs commercial insecticide containing Lambda-cyhalothrin. From the text:
Preferably, in the concentrates according to the invention, the insecticide and/or arachnicide compound of formula (I) is 3-methylbutyl dodecanoate (isoamyl laurate).

Data set [4] has as its system Pollen beetles Meligethes aeneus, strains resistant to pyrethroids. In words: Efficacy on pollen beetles, coated glass phial, IRAC method no.11, strains resistant to pyrethroids. It is filed as in vivo. To be noted: after 24 hrs. As to the method:
as §1, §2, §3, §4, §5

[5] abbreviates: dose 3N (16.2 L/ha) on D+1, composition with Actirob B adjuvant.

Take `CCCCCCCCCC(=O)OCC(CC)CCCC` (stereo not shown) [2-ethylhexyl caprate]: the efficacy in the data set with Rhopalosiphum padi (setting [5]) was roughly 55%.

With `CCCCCCCCCCCC(=O)OCCC(C)C` [isoamyl laurate, 3-methylbutyl dodecanoate], the “efficacy against the larvae and adults” value in the data set on Ostrinia nubilalis is listed as 19.5%. The “efficacy (mortality) on larvae” value in data set [1] was 10%. Besides, the “Efficacy (%) Susceptible” value is recorded as 55% in data set [2] (dose 2.0 L/ha) and 90% in data set [2] (dose 4.0 L/ha). In addition, the “toxicity (aquatic toxicity, toxicity in humans through inhalation, irritation of the skin and eyes)” value in data set [3] is “less toxic”. For the same compound, the “Efficacy (%) Strains resistant to pyrethroids” value in data set [4] (dose 2.0 L/ha) amounted to 40%; in data set [4] (dose 4.0 L/ha) it was 75%. In addition, in the data set on Rhopalosiphum padi (dose 3N (16.2 L/ha), composition 1.a with Actirob B adjuvant, FIG. 2), the efficacy was roughly 80%.

With `CCCCCCCCCCCCCCCC(=O)OCC(CC)CCCC` (stereo not shown) [2-ethylhexyl palmitate, reference compound], the efficacy result in the data set with Rhopalosiphum padi (setting [5]) is reported as “approximately 10%”.
